{"source": "patent US20090286722A1", "about": "(priority 2005, published 2009)", "key": {"[1]": {"target": "dipeptidyl peptidase IV (Sus scrofa, UniProt P22411)", "sequence (P22411 whole entry)": "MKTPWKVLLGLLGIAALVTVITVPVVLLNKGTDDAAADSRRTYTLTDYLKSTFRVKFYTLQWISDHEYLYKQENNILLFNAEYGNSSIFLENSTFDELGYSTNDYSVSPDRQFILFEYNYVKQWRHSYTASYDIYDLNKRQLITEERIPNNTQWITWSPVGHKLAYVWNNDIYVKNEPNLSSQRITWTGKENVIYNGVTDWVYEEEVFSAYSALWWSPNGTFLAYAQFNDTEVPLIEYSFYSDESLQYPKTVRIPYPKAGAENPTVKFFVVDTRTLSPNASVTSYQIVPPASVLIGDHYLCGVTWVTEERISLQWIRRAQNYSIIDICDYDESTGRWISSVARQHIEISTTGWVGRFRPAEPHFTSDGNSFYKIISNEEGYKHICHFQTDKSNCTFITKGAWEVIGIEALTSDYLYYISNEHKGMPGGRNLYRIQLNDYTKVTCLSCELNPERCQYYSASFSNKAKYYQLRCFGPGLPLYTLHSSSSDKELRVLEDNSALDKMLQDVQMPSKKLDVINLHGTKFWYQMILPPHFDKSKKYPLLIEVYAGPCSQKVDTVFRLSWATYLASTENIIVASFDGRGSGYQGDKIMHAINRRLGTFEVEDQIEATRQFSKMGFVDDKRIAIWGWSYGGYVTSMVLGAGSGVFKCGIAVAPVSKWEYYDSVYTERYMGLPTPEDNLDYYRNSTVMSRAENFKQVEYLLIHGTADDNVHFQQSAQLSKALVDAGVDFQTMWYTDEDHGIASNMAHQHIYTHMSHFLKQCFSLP", "test": "DPP IV degradation, % intact peptide by HPLC", "type": "in vitro ADME, porcine", "details": "pig, purified porcine dipeptidyl peptidase IV (DPP IV), 37° C., pH 7.8", "description": "(§1) HPLC peak area data were used to calculate the percentage intact peptide remaining at the various time points during the incubation."}, "[2]": {"target": "purified porcine dipeptidyl peptidase IV (Sus scrofa, UniProt P22411)", "sequence (P22411 whole entry)": "as above", "test": "DPP IV degradation, % intact peptide by HPLC", "type": "in vitro ADME", "details": "37° C., pH 7.8", "description": "as §1"}, "[3]": {"target": "T1, human GIP receptor (Homo sapiens, UniProt P48546)", "T1 construct": "expressed in transfected cells; host or cells: Chinese hamster lung (CHL) fibroblasts", "T1 sequence (P48546 22-466)": "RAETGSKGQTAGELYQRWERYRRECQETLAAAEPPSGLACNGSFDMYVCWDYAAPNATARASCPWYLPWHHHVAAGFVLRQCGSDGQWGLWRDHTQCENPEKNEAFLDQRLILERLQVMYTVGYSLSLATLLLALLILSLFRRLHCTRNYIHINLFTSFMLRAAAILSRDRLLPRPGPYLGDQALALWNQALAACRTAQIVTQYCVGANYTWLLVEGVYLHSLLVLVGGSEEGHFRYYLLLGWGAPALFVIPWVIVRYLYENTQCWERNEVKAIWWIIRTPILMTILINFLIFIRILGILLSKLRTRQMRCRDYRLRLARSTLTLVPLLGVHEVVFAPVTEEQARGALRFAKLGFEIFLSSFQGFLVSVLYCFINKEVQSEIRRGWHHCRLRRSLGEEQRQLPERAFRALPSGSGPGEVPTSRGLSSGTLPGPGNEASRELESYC", "test": "Intracellular cAMP production in GIP-receptor transfected CHL cells", "type": "cell-based", "description": "The cells were then incubated at 37° C. for 6 hours in 1 ml DMEM, supplemented with 0.5% (w/v) BSA and subsequently washed twice with HBS buffer (Hanks Buffered Saline solution). […] The medium was subsequently removed and the cells lysed with 1 ml of 5% trichloroacetic acid containing 0.1 mM unlabelled cAMP and 0.1 mM unlabelled ATP. The intracellular tritiated cAMP was then separated on Dowex and alumina exchange resins (Life Science Research, Larne, UK)."}, "[4]": {"test_system": "D3 mouse ES cell line", "test": "Differentiation of D3 mouse ES cells to beta cell phenotype, insulin release and insulin/C-peptide content", "type": "cell-based", "description": "The D3 mouse ES cell line was routinely cultured on tissue culture plastic coated with 0.1% (w/v) gelatine in DMEM (25 mM glucose) containing 15% foetal bovine serum (FBS), 2 mM glutamine, 50 U/ml penicillin/streptomycin, non-essential amino acids, 0.1 mM β-mercaptoethanol, and 1000 U/ml LIF (leukaemia inhibitory factor). Medium was changed daily and cultures were passaged every 2 days onto fresh geletin-coated plates at a split ratio of 1:5. The cells were passaged by washing the cultures with phosphate-buffer saline and then detached from the plate with a trypsin (2.5 g/L)-EDTA (1 mM) solution. Prior to seeding into new flasks the ES cells were dissociated to single cells suspensions by repeated pipetting.\nFor differentiation of D3 mouse ES cells, an established protocol was used (Lumelsky, N. et al., 2001, Science 292(5520):1389-94). Briefly, LIF was removed from the culture medium, EBs (embryonic bodies) were then formed by growing the cells as non-adherent clusters. For the selection of nestin positive precursor cells, medium was changed to serum free ITSFn medium and for expanding these progenitors, cells were incubated in N2 serum free medium for 7 days (stage 4) and then differentiated into insulin-containing cell clusters by incubation in N2 serum free medium without bFGF, supplemented with 10 mM nicotinamide for 7 days (stage 5) (control protocol). […] The differentiated cells were harvested at the end of stage 4 and 5 and samples were seeded onto 24 well plates for insulin and C-peptide studies. Insulin release from differentiated cells from stages 4 and 5 were determined using cell monolayers. The cells were harvested with the aid of trypsin/EDTA (Gibco), seeded into 24-multiwell plates (Nunc, Rosklide, Denmark) at a density of 0.1×10^6 cells per well, and allowed to attach overnight.\nPrior to the acute test, cells were washed three times and preincubated for 40 minutes at 37° C. in a 1.0 ml Krebs Ringer bicarbonate buffer (115 mM NaCl, 4.7 mM KCl, 1.28 mM CaCl2, 1.2 mM KH2PO4, 1.2 mM MgSO4, 10 mM NaHCO3, 5 g/l bovine serum albumin, pH 7.4) supplemented with 1.1 mM glucose. Test incubations were performed for 20 minutes at 37° C. using the same buffer supplemented with 5.6 mM glucose in the absence (control) and presence of various test agents as indicated in the Figures. After incubation, aliquots of buffer were removed and stored at −20° C. for insulin radioimmunoassay. For assessment of cellular hormone contents, the buffer was completely removed and […] of acid-ethanol solution (1.5% (v/v) HCl, 75% (v/v) ethanol, 23.5% (v/v) H2O) was added. The cells were disrupted with the aid of a pasture pipette and incubated overnight at 4° C. prior to centrifugation (900 rpm) and stored at −20° C."}, "[5]": {"test_system": "ob/ob mice", "test": "Acute glucose lowering and insulin release, peptide given i.p. with glucose to 18 hour fasted ob/ob mice", "quoted_text": "Obese diabetic (ob/ob) mice derived from the colony maintained at Aston University, UK (23) were used at 12-16 weeks of age. […] Drinking water and standard rodent maintenance diet (Trouw Nutrition, Cheshire, UK) were freely available.\nFood intake and body weight were recorded daily from 5 days before commencement of the treatment regimes. Plasma glucose and insulin concentrations (10:00 h) were monitored at 2-4 day intervals. […] All acute tests were commenced at 10:00 h. […] Serum samples were taken for determination of glucagon concentrations. All other blood samples were collected from the cut tip of the tail vein of conscious mice into chilled fluoride/heparin coated glucose microcentrifuge tubes (Sarstedt, Nümbrecht, Germany) at the times indicated in the Figures. Blood samples were immediately centrifuged using a Beckman microcentrifuge (Beckman Instruments, Galway, Ireland) for 30 seconds at 13,000×g. The resulting plasma was then aliquoted into fresh tubes and stored at −20° C. prior to glucose and insulin determinations."}, "[6]": {"details": "culture media supplemented with 1×10^-6 M peptide, Stage 4"}, "[7]": {"details": "culture media supplemented with 1×10^-6 M peptide, Stage 5"}}, "data": [{"smiles": "CCCCCCCCCCCCCCCC(=O)NCCCC[C@H](NC(=O)[C@H](CC(=O)O)NC(=O)[C@H](CCSC)NC(=O)[C@H](C)NC(=O)[C@@H](NC(=O)[C@H](CO)NC(=O)[C@H](Cc1ccc(O)cc1)NC(=O)[C@H](CC(=O)O)NC(=O)[C@H](CO)NC(=O)[C@@H](NC(=O)[C@H](Cc1ccccc1)NC(=O)[C@@H](NC(=O)CNC(=O)[C@H](CCC(=O)O)NC(=O)[C@H](C)NC(=O)[C@@H](N)Cc1ccc(O)cc1)[C@@H](C)O)[C@@H](C)CC)[C@@H](C)CC)C(=O)N[C@H](C(=O)N[C@@H](Cc1c[nH]cn1)C(=O)N[C@@H](CCC(N)=O)C(=O)N[C@@H](CCC(N)=O)C(=O)N[C@@H](CC(=O)O)C(=O)N[C@@H](Cc1ccccc1)C(=O)N[C@H](C(=O)N[C@@H](CC(N)=O)C(=O)N[C@@H](Cc1c[nH]c2ccccc12)C(=O)N[C@@H](CC(C)C)C(=O)N[C@@H](CC(C)C)C(=O)N[C@@H](C)C(=O)N[C@@H](CCC(N)=O)C(=O)N[C@@H](CCCCN)C(=O)NCC(=O)N[C@@H](CCCCN)C(=O)N[C@@H](CCCCN)C(=O)N[C@@H](CC(N)=O)C(=O)N[C@@H](CC(=O)O)C(=O)N[C@@H](Cc1c[nH]c2ccccc12)C(=O)N[C@@H](CCCCN)C(=O)N[C@@H](Cc1c[nH]cn1)C(=O)N[C@@H](CC(N)=O)C(=O)N[C@H](C(=O)N[C@H](C(=O)N[C@@H](CCC(N)=O)C(=O)O)[C@@H](C)O)[C@@H](C)CC)C(C)C)[C@@H](C)CC", "note": "[GIP(LysPAL^16)]", "values": [{"measurement": "remaining at 2 h, 2 mM", "setting": "[1]; 2 h incubation with DPP IV (5 mU), read-out: % Intact peptide remaining after time (h) 2", "value": 100, "unit": "%"}, {"measurement": "remaining at 8 h, 2 mM", "setting": "[1]; 8 h incubation with DPP IV (5 mU), read-out: % Intact peptide remaining after time (h) 8", "value": 100, "unit": "%"}, {"measurement": "remaining at 24 h, 2 mM", "setting": "[1]; 24 h incubation with DPP IV (5 mU), read-out: % Intact peptide remaining after time (h) 24", "value": 100, "unit": "%"}, {"measurement": "% Intact peptide remaining after time (h) 0", "setting": "[2]; 0 h incubation with DPP IV (5 mU)", "value": 100, "unit": "%"}, {"measurement": "% Intact peptide remaining after time (h) 24", "setting": "[2]; 24 h incubation with DPP IV (5 mU)", "value": "remained fully intact"}, {"measurement": "EC50", "setting": "[3]", "value": 2.9, "unit": "nM"}, {"measurement": "glucose-induced insulin release of differentiated stage 4 cells, modified versus control protocol", "setting": "[4]; 1×10^-6 M peptide in media, stage 4, 0-22.0 mM glucose", "value": "significantly higher"}, {"measurement": "response of differentiated stage 5 cells to glucose", "setting": "[4]; 1×10^-6 M peptide in media, stage 5", "value": "appear not respond to glucose"}, {"measurement": "increase in C-peptide content compared to control, stage 4", "setting": "[4]; 1×10^-6 M peptide, stage 4", "value": 1.5, "unit": "fold"}, {"measurement": "increase in C-peptide content compared to control, stage 5", "setting": "[4]; 1×10^-6 M peptide, stage 5", "value": 1.3, "unit": "fold"}, {"measurement": "C-Peptide content of differentiated D3 cluster cells, Stage 4", "setting": "[4]; [6]", "value": "124.5 ± 3.13", "unit": "pmol/mg protein/20 mins"}, {"measurement": "Insulin content of differentiated D3 cluster cells, Stage 4", "setting": "[4]; [6]", "value": "9154 ± 291.1", "unit": "pmol/mg protein/20 mins"}, {"measurement": "C-Peptide content of differentiated D3 cluster cells, Stage 5", "setting": "[4]; [7]", "value": "121.9 ± 3.43", "unit": "pmol/mg protein/20 mins"}, {"measurement": "Insulin content of differentiated D3 cluster cells, Stage 5", "setting": "[4]; [7]", "value": "8532 ± 626.5", "unit": "pmol/mg protein/20 mins"}, {"measurement": "plasma glucose concentrations and AUC (0-60 min) compared to glucose alone", "setting": "[5]; 25 nmol/kg i.p. with glucose 18 mmol/kg", "value": "significantly reduced"}, {"measurement": "overall enhancement of insulin release over native GIP", "setting": "[5]; 25 nmol/kg i.p. with glucose, insulin AUC 0-60 min", "value": 2.4, "unit": "fold"}]}]}
